Reference: patent EP0158075A1, “Immuno stimulating composition” (BAYER AG, priority 1984, dated 1985)

How the values were obtained:
Salmonella typhimurium [1] = experiment: Survival of mice after intraperitoneal infection with Salmonella typhimurium (Beispiel B); assay type: in vivo, Mäuse; conditions: 10 mg/kg per os once daily on 4 consecutive days, starting 1 day after i.p. infection with 7 x 10^5 colony-forming units
Excerpt: Substanzen, die die körpereigene Abwehr (Immunsystem) während einer Infektion stimulieren, sind sowohl für die Human- wie für die Veterinärmedizin von großem Interesse, da viele Infektionen trotz guter chemotherapeutischer Möglichkeiten ohne Unterstützung durch körpereigene Abwehrmechanismen persistieren. Dies kann zum erneuten Auftreten von Symptomen (Rezidiv) nach dem überstehen der Ersterkrankung und damit zu chronisch rezidivierenden Krankheiten führen. Unter den durch Bakterien bedingten Erkrankungen sind es besonders Infektionen mit sogenannten fakultativ intrazellulären Bakterien, die Probleme darstellen. Darunter versteht man Bakterien, die sich nach Aufnahme in die Makrophagen (Phagozytose) weiter vermehren. Es bedarf erst einer weiteren Stimulierung der Makrophagen über das Immunsystem, um diese intrazellulären Bakterien abzutöten. Ein Experimentalmodell für eine solche Erkrankung stellt die Infektion der Maus mit Salmonella typhimurium dar. Nach Inokulation der Mäuse mit diesem humanpathogenen Bakterium kommt es in Abhängigkeit von der Infektionsdosis zu einem subakut bis chronischen Krankheitsverlauf, bei dem die Tiere erst nach 4 bis 7 Tagen abzusterben beginnen. Während dieses Zeitraumes besteht die Möglichkeit, das Immunsystem durch Substanzen zu beeinflussen. Bei den meisten anderen tierexperimentellen Infektionen, kommt es zu einem sehr schnellen Absterben der Tiere innerhalb von 1 bis 2 Tagen. Damit besteht keine Möglichkeit mehr, die Abwehr während der Infektion zu stimulieren. 1-[3-Methyl-4-(4'-trifluormethylthio-phenoxy)-phenyl]-3-methyl-1,3,5-triazin-trion wurde Mäusen an 4 aufeinanderfolgenden Tagen einmal täglich per os in unterschiedlichen Dosen verabfolgt, beginnend 1 Tag nach intraperitonealer Infektion mit 7 x 10^5 Kolonien-bildenden Einheiten von Salmonella typhimurium. Diese Infektionsdosis führt bei unbehandelten Tieren innerhalb von 4 bis 6 Tagen zu einem Absterben von 70 bis 90 % der Tiere. […]

Salmonella typhimurium [2] = experiment: In vitro direct effect on growth of Salmonella typhimurium; assay type: cell-based

Cc1cc(-n2c(=O)[nH]c(=O)n(C)c2=O)ccc1Oc1ccc(SC(F)(F)F)cc1 [1-[3-Methyl-4-(4'-trifluormethylthio-phenoxy)-phenyl]-3-methyl-1,3,5-triazin-2,4,6-(1H, 3H, 5H)-trion]
Überlebende Mäuse (%) an folgenden Tagen nach Infektion: 6. Tag (Salmonella typhimurium [1]; day 6 after infection): 90%
Überlebende Mäuse (%) an folgenden Tagen nach Infektion: 12. Tag (Salmonella typhimurium [1]; day 12 after infection): 60%
Überlebende Mäuse (%) an folgenden Tagen nach Infektion: 18. Tag (Salmonella typhimurium [1]; day 18 after infection): 60%
direkter Effekt auf die Vermehrung von Salmonella typhimurium (Salmonella typhimurium [2]): keinen direkten Effekt
